Experimental findings from article PMC5500991, “Substituted arylsulphonamides as inhibitors of perforin-mediated lysis” (European Journal of Medicinal Chemistry, 2017) are described below.

Structures are written as SMILES. Counter-ions that a name gives are not always drawn.

Usually inhibition stands for the relative decrease from the control value, in per cent. Broadly, the viability is a read-out of living cells in per cent, often relative to untreated cells. A low value points to more harm to the cells. As a reminder, the melting point is the temperature of the solid-liquid transition.

For the first series, the target named is T1, perforin delivered by KHYG1 NK cells (Homo sapiens, UniProt P14222).
T1 construct: The use of whole NK cells to deliver perforin provides a more realistic model of conditions in vivo; endogenous in cells; host or cells: KHYG1 human NK cells (effector); K562 leukemia target cells
T1 sequence (P14222 22-555): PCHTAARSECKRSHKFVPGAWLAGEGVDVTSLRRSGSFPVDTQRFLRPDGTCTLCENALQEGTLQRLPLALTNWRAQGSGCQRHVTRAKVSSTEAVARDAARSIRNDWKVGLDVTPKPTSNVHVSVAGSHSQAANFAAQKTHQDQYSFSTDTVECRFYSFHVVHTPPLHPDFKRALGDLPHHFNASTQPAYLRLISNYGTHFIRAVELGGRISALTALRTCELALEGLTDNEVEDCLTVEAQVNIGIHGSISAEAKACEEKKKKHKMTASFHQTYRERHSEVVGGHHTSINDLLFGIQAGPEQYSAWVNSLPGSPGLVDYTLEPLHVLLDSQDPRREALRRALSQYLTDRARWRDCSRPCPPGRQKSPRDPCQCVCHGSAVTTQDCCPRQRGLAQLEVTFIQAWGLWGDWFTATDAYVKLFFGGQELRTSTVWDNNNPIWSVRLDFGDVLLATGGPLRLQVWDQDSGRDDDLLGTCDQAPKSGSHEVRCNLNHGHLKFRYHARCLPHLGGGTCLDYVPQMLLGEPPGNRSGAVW
Put plainly: KHYG1 inhibitory assay: lysis of 51Cr-labelled K562 target cells by KHYG1 NK cells. It counts as cell-based. The following applies: 51Cr-labelled K562 target cells co-incubated with KHYG1 human NK cells, vs untreated control, n = 4. As for the experimental part: The inhibitory function is then determined by identifying the number of untreated or inhibitor treated effector cells required to kill the same number of targets.
Consider `CN1Cc2cc(-c3ccc(-c4cncc(NS(=O)(=O)c5cc(C(F)(F)F)cc(C(F)(F)F)c5)c4)s3)ccc2C1=O` [Compound 47, N-(5-(5-(2-Methyl-1-oxoisoindolin-5-yl)thiophen-2-yl)pyridin-3-yl)-3,5-bis(trifluoromethyl)benzenesulphonamide], for which the inhibition at 10 µM was found to be 0%.

Consider `CN1Cc2cc(-c3ccc(-c4cc(NS(=O)(=O)c5ccccn5)ccc4F)s3)ccc2C1=O` [Compound 17, N-{4-Fluoro-3-[5-(2-methyl-1-oxo-2,3-dihydro-1H-isoindol-5-yl)-2-thienyl]phenyl}-2-pyridinesulfonamide], for which the inhibition at 10 µM turned out to be 0%.

`CN1Cc2cc(-c3ccc(-c4cncc(NS(=O)(=O)c5ccc(S(C)(=O)=O)cc5)c4)s3)ccc2C1=O` [Compound 57, Sodium (5-(5-(2-methyl-1-oxoisoindolin-5-yl)thiophen-2-yl)pyridin-3-yl)((4-(methylsulfonyl)phenyl)sulfonyl)amide]: the inhibition at 10 µM is 0%.

Regarding `Cc1ccc(S(=O)(=O)Nc2ccccn2)cc1-c1ccc(-c2ccc3c(c2)CN(C)C3=O)s1` [Compound 16, Sodium (4-methyl-3-(5-(2-methyl-1-oxoisoindolin-5-yl)thiophen-2-yl)phenylsulfonyl)(pyridin-2-yl)amide], the inhibition at 10 µM came out at 0%.

Test system in the next series: not listed separately
The experiment in a line: Toxicity to KHYG1 NK cells (Trypan blue exclusion). The following applies: human, viability of KHYG1 NK cells after 24 h, n = 3. It counts as cell-based, human. Here is the method: The toxicity assay was carried out in exactly the same manner as the killing assay above, but instead of adding the labelled K562 target cells, 100 μL of RPMI 0.1% BSA was added. Cells were incubated for 4 h at 37 °C and then washed ×3 in RPMI + 0.1% BSA. […] Trypan blue was added to each well. Viable (clear) cells and total (clear + blue) cells were counted, and the percentage of viable cells was calculated compared to DMSO treated cell control (% viability).
As for `CN1Cc2cc(-c3ccc(-c4cncc(NS(=O)(=O)c5cc(C(F)(F)F)cc(C(F)(F)F)c5)c4)s3)ccc2C1=O` [Compound 47, N-(5-(5-(2-Methyl-1-oxoisoindolin-5-yl)thiophen-2-yl)pyridin-3-yl)-3,5-bis(trifluoromethyl)benzenesulphonamide], the viability at 24 h, 10 µM came out at 90.2 ± 3.4%.

`CN1Cc2cc(-c3ccc(-c4cc(NS(=O)(=O)c5ccccn5)ccc4F)s3)ccc2C1=O` [Compound 17, N-{4-Fluoro-3-[5-(2-methyl-1-oxo-2,3-dihydro-1H-isoindol-5-yl)-2-thienyl]phenyl}-2-pyridinesulfonamide] displayed a viability at 24 h, 10 µM of 91.4 ± 6.5%.

The molecule `CN1Cc2cc(-c3ccc(-c4cncc(NS(=O)(=O)c5ccc(S(C)(=O)=O)cc5)c4)s3)ccc2C1=O` [Compound 57, Sodium (5-(5-(2-methyl-1-oxoisoindolin-5-yl)thiophen-2-yl)pyridin-3-yl)((4-(methylsulfonyl)phenyl)sulfonyl)amide] yielded a viability at 24 h, 10 µM of 90 ± 7.8%.

Molecule `Cc1ccc(S(=O)(=O)Nc2ccccn2)cc1-c1ccc(-c2ccc3c(c2)CN(C)C3=O)s1` [Compound 16, Sodium (4-methyl-3-(5-(2-methyl-1-oxoisoindolin-5-yl)thiophen-2-yl)phenylsulfonyl)(pyridin-2-yl)amide] showed a viability at 24 h, 10 µM of 96.1 ± 6%.

Test system in the next series: not listed separately
Put plainly: Solubility of the sodium salt in water. It counts as physicochemical. The following applies: sodium salt in water at room temperature. As for the experimental part: The compound was dissolved in water until it was no longer soluble in order to achieve a supersaturated concentration. The suspensions were sonicated for 15 min. prior to centrifugation at 13,000 revolutions per minute (rpm) for 6 minutes. Supernatants were removed and then recentrifuged prior to dilution of at least two fold in water to avoid precipitation during HPLC analysis.
As to `CN1Cc2cc(-c3ccc(-c4cnc(F)c(NS(=O)(=O)c5ccccn5)c4)s3)ccc2C1=O` [Compound 20, N-(2-Fluoro-5-(5-(2-methyl-1-oxoisoindolin-5-yl)thiophen-2-yl)pyridin-3-yl)pyridine-2-sulfonamide], the Solubility entry is “significantly improved”.

Test system in another series: not given
Assay: not given
Conditions: not given
Molecule `CN1Cc2cc(-c3ccc(-c4cncc(NS(=O)(=O)c5cc(C(F)(F)F)cc(C(F)(F)F)c5)c4)s3)ccc2C1=O` [Compound 47, N-(5-(5-(2-Methyl-1-oxoisoindolin-5-yl)thiophen-2-yl)pyridin-3-yl)-3,5-bis(trifluoromethyl)benzenesulphonamide] showed a melting point of 299 to 302 °C.

`CN1Cc2cc(-c3ccc(-c4cncc(S(=O)(=O)Nc5ccc(F)cc5F)c4)s3)ccc2C1=O` [Compound 7, N-(2,4-Difluorophenyl)-5-(5-(2-methyl-1-oxoisoindolin-5-yl)thiophen-2-yl)pyridine-3-sulphonamide] showed a melting point of 221 to 224 °C.

Take `CN1Cc2cc(-c3ccc(-c4cncc(NS(=O)(=O)c5cc(Br)cc(C(F)(F)F)c5)c4)s3)ccc2C1=O` [Compound 65, 3-Bromo-N-(5-(5-(2-methyl-1-oxoisoindolin-5-yl)thiophen-2-yl)pyridin-3-yl)-5-(trifluoromethyl)benzenesulphonamide]: the melting point lay in the range of 280 to 283 °C.

The molecule `COc1ncc(-c2ccc(-c3ccc4c(c3)CN(C)C4=O)s2)cc1NS(=O)(=O)c1ccc(F)cc1F` [Compound 12, 2,4-Difluoro-N-(2-methoxy-5-(5-(2-methyl-1-oxoisoindolin-5-yl)-thiophen-2-yl)pyridin-3-yl)benzenesulphonamide] returned a melting point of 224 to 227 °C.

The molecule `Cc1ncsc1S(=O)(=O)Nc1cncc(-c2ccc(-c3ccc4c(c3)CN(C)C4=O)s2)c1` [Compound 74, 4-Methyl-N-(5-(5-(2-methyl-1-oxoisoindolin-5-yl)thiophen-2-yl)pyridin-3-yl)thiazole-5-sulphonamide] showed a melting point of 277 to 280 °C.

As for `CN1Cc2cc(-c3ccc(-c4cncc(N(C)S(=O)(=O)c5ccc(F)cc5F)c4)s3)ccc2C1=O` [Compound 6, 2,4-Difluoro-N-methyl-N-(5-(5-(2-methyl-1-oxoisoindolin-5-yl)thiophen-2-yl)pyridin-3-yl)-benzenesulphonamide], the melting point lay in the range of 200 to 202 °C.

`CN1Cc2cc(-c3ccc(-c4cccc(S(=O)(=O)Nc5ccccn5)c4)s3)ccc2C1=O` (as salt: sodium) [Compound 14, sodium ((3-(5-(2-methyl-1-oxoisoindolin-5-yl)thiophen-2-yl)phenyl)sulfonyl)(pyridin-2-yl)amide] yielded a melting point of 302 to 306 °C.

Regarding `CN1Cc2cc(-c3ccc(-c4ccnc(NS(=O)(=O)c5ccc(F)cc5F)c4)s3)ccc2C1=O` [Compound 5, 2,4-Difluoro-N-(4-(5-(2-methyl-1-oxoisoindolin-5-yl)thiophen-2-yl)pyridin-2-yl)benzenesulfonamide], the melting point fell in the range of 235 to 239 °C.

For the molecule `CN1Cc2cc(-c3ccc(-c4cncc(NS(=O)(=O)c5ccc(-c6cnco6)cc5)c4)s3)ccc2C1=O` [Compound 70, N-(5-(5-(2-Methyl-1-oxoisoindolin-5-yl)thiophen-2-yl)pyridin-3-yl)-4-(oxazol-5-yl)benzenesulfonamides], the melting point is 278 to 281 °C.

Take `CN1Cc2cc(-c3ccc(-c4ccc(OC(F)(F)F)c(NS(=O)(=O)c5ccccn5)c4)s3)ccc2C1=O` [Compound 18, N-(5-(5-(2-Methyl-1-oxoisoindolin-5-yl)thiophen-2-yl)-2-(trifluoromethoxy)phenyl)pyridine-2-sulfonamide]: the melting point is 200 to 201 °C.

`Cc1cc(F)ccc1S(=O)(=O)Nc1cncc(-c2ccc(-c3ccc4c(c3)CN(C)C4=O)s2)c1` [Compound 61, 4-Fluoro-2-methyl-N-(5-(5-(2-methyl-1-oxoisoindolin-5-yl)thiophen-2-yl)pyridin-3-yl) benzenesulphonamide] showed a melting point of 280 to 283 °C.

In turn, `COc1cccc(S(=O)(=O)Nc2cncc(-c3ccc(-c4ccc5c(c4)CN(C)C5=O)s3)c2)c1` [Compound 38, 3-Methoxy-N-(5-(5-(2-methyl-1-oxoisoindolin-5-yl)thiophen-2-yl)pyridin-3-yl)benzenesulfonamide] had a melting point of 278 to 280 °C.

In turn, `CN1Cc2cc(-c3ccc(-c4cncc(NS(=O)(=O)c5cccc(Cl)c5F)c4)s3)ccc2C1=O` [Compound 60, 3-Chloro-2-fluoro-N-(5-(5-(2-methyl-1-oxoisoindolin-5-yl)thiophen-2-yl)pyridin-3-yl)benzenesulfonamide] displayed a melting point of 269 to 272 °C.

Molecule `CN1Cc2cc(-c3ccc(-c4cncc(NS(=O)(=O)c5ccc(F)c(F)c5)c4)s3)ccc2C1=O` [Compound 25, 3,4-Difluoro-N-(5-(5-(2-methyl-1-oxoisoindolin-5-yl)thiophen-2-yl)pyridin-3-yl)benzenesulfonamide] yielded a melting point of 282 to 285 °C.

For `CN1Cc2cc(-c3ccc(-c4cncc(NS(=O)(=O)c5ccc(Cl)cc5Cl)c4)s3)ccc2C1=O` [Compound 31, 2,4-Dichloro-N-(5-(5-(2-methyl-1-oxoisoindolin-5-yl)thiophen-2-yl)pyridin-3-yl)benzenesulfonamide], the melting point is 282 to 285 °C.

The molecule `CN1Cc2cc(-c3ccc(-c4cncc(NS(=O)(=O)c5ccccc5OC(F)(F)F)c4)s3)ccc2C1=O` [Compound 41, N-(5-(5-(2-Methyl-1-oxoisoindolin-5-yl)thiophen-2-yl)pyridin-3-yl)-2-(trifluoromethoxy)benzenesulfonamide] returned a melting point of 251 to 254 °C.

In turn, `CN1Cc2cc(-c3ccc(-c4cncc(NS(=O)(=O)c5ccc(OC(F)(F)F)cc5)c4)s3)ccc2C1=O` [Compound 43, N-(5-(5-(2-Methyl-1-oxoisoindolin-5-yl)thiophen-2-yl)pyridin-3-yl)-4-(trifluoromethoxy)benzenesulfonamide] registered a melting point of 293 to 296 °C.

`Cc1ccc(NS(=O)(=O)c2ccccn2)cc1-c1ccc(-c2ccc3c(c2)CN(C)C3=O)s1` [Compound 15, N-(4-Methyl-3-(5-(2-methyl-1-oxoisoindolin-5-yl)thiophen-2-yl)phenyl)pyridine-2-sulfonamide] registered a melting point of 274 to 277 °C.

`CN1Cc2cc(-c3ccc(-c4cncc(NS(=O)(=O)c5ccc(Br)cc5)c4)s3)ccc2C1=O` [Compound 34, 4-Bromo-N-(5-(5-(2-methyl-1-oxoisoindolin-5-yl)thiophen-2-yl)pyridin-3-yl)benzenesulfonamide] gave a melting point of 276 to 279 °C.

`CN1Cc2cc(-c3ccc(-c4cncc(NS(=O)(=O)c5ccc(Cl)c(Cl)c5)c4)s3)ccc2C1=O` [Compound 30, 3,4-Dichloro-N-(5-(5-(2-methyl-1-oxoisoindolin-5-yl)thiophen-2-yl)pyridin-3-yl)benzenesulfonamide] yielded a melting point of 256 to 259 °C.

`CN1Cc2cc(-c3ccc(-c4cncc(NS(=O)(=O)c5ccc(Br)cc5Br)c4)s3)ccc2C1=O` [Compound 35, 2,4-Dibromo-N-(5-(5-(2-methyl-1-oxoisoindolin-5-yl)thiophen-2-yl)pyridin-3-yl)benzenesulfonamides] had a melting point of 276 to 279 °C.
